The NIST ThermoML archive (doi:10.1016/j.jct.2006.08.009)

Test: mn = molality of the nth substance listed, in mol/kg
Details: 350 kPa, Liquid; for apparent molar heat capacity: Extra sensitive DSC

OC[C@@H](O)[C@H](O)[C@@H](O)CO [xylitol] + O
Details	apparent molar heat capacity [J/K/mol]	mass density [kg/m3]
278.15 K, m1 = 0.0499	278.9	1002.96
278.15 K, m1 = 0.1	288.4	1005.41
278.15 K, m1 = 0.4001	293.3	1020.49
278.15 K, m1 = 0.7496	297.2	1036.91
278.15 K, m1 = 1.001	299.5	1047.83
278.15 K, m1 = 1.498	303.4	1067.95
278.15 K, m1 = 1.997	301.8	1086.45
278.15 K, m1 = 2.701	311.1	1109.42
283.15 K, m1 = 0.0499	296.8	1002.63
283.15 K, m1 = 0.1	306.1	1005.03
283.15 K, m1 = 0.4001	310.2	1019.9
283.15 K, m1 = 0.7496	313.4	1036.06
283.15 K, m1 = 1.001	315.6	1046.82
283.15 K, m1 = 1.498	318.5	1066.63
283.15 K, m1 = 1.997	317.4	1084.9
283.15 K, m1 = 2.701	325	1107.65
288.15 K, m1 = 0.0499	310.8	1001.96
288.15 K, m1 = 0.1	319.8	1004.34
288.15 K, m1 = 0.4001	323.4	1019.04
288.15 K, m1 = 0.7496	326.2	1035
288.15 K, m1 = 1.001	328.1	1045.65
288.15 K, m1 = 1.498	330.3	1065.25
288.15 K, m1 = 1.997	328.7	1083.35
288.15 K, m1 = 2.701	335.7	1105.88
293.15 K, m1 = 0.0499	322.5	–
293.15 K, m1 = 0.1	331.4	–
293.15 K, m1 = 0.4001	334.8	–
293.15 K, m1 = 0.7496	337.1	–
293.15 K, m1 = 1.001	338.8	–
293.15 K, m1 = 1.498	340.5	–
293.15 K, m1 = 1.997	338.3	–
293.15 K, m1 = 2.701	344.9	–
298.15 K, m1 = 0.0499	332.9	999.86
298.15 K, m1 = 0.1	341.6	1002.2
298.15 K, m1 = 0.4001	344.5	1016.61
298.15 K, m1 = 0.7496	346.5	1032.27
298.15 K, m1 = 1.001	347.8	1042.69
298.15 K, m1 = 1.498	349.2	1061.92
298.15 K, m1 = 1.997	346.7	1079.8
298.15 K, m1 = 2.701	352.9	1101.9
303.15 K, m1 = 0.0499	342	–
303.15 K, m1 = 0.1	350.4	–
303.15 K, m1 = 0.4001	352.9	–
303.15 K, m1 = 0.7496	354.6	–
303.15 K, m1 = 1.001	355.8	–
303.15 K, m1 = 1.498	356.9	–
303.15 K, m1 = 1.997	354	–
303.15 K, m1 = 2.701	359.9	–
308.15 K, m1 = 0.0499	349.7	996.7
308.15 K, m1 = 0.1	358.1	999
308.15 K, m1 = 0.4001	360.4	1013.2
308.15 K, m1 = 0.7496	361.7	1028.7
308.15 K, m1 = 1.001	362.8	1038.8
308.15 K, m1 = 1.498	363.6	1057.9
308.15 K, m1 = 1.997	360.6	1075.2
308.15 K, m1 = 2.701	366.2	1097.2
313.15 K, m1 = 0.0499	356.5	–
313.15 K, m1 = 0.1	365	–
313.15 K, m1 = 0.4001	367	–
313.15 K, m1 = 0.7496	368.1	–
313.15 K, m1 = 1.001	369.1	–
313.15 K, m1 = 1.498	369.7	–
313.15 K, m1 = 1.997	366.6	–
313.15 K, m1 = 2.701	371.9	–
318.15 K, m1 = 0.0499	362.5	992.82
318.15 K, m1 = 0.1	370.9	995.17
318.15 K, m1 = 0.4001	372.9	1009.11
318.15 K, m1 = 0.7496	373.8	1024.37
318.15 K, m1 = 1.001	374.7	1034.54
318.15 K, m1 = 1.498	375.2	1053.25
318.15 K, m1 = 1.997	372	1070.4
318.15 K, m1 = 2.701	377.1	1092.04
323.15 K, m1 = 0.0499	368.1	–
323.15 K, m1 = 0.1	376.3	–
323.15 K, m1 = 0.4001	378.3	–
323.15 K, m1 = 0.7496	379.1	–
323.15 K, m1 = 1.001	379.8	–
323.15 K, m1 = 1.498	380.2	–
323.15 K, m1 = 1.997	377	–
323.15 K, m1 = 2.701	381.9	–
328.15 K, m1 = 0.0499	372.9	988.29
328.15 K, m1 = 0.1	381.3	990.59
328.15 K, m1 = 0.4001	383.2	1004.39
328.15 K, m1 = 0.7496	383.8	1019.46
328.15 K, m1 = 1.001	384.5	1029.53
328.15 K, m1 = 1.498	384.7	1048.03
328.15 K, m1 = 1.997	381.6	1064.94
328.15 K, m1 = 2.701	386.3	1086.4
333.15 K, m1 = 0.0499	377.6	–
333.15 K, m1 = 0.1	385.7	–
333.15 K, m1 = 0.4001	387.6	–
333.15 K, m1 = 0.7496	388.2	–
333.15 K, m1 = 1.001	388.8	–
333.15 K, m1 = 1.498	389	–
333.15 K, m1 = 1.997	385.9	–
333.15 K, m1 = 2.701	390.4	–
338.15 K, m1 = 0.0499	382	983.12
338.15 K, m1 = 0.1	389.8	985.45
338.15 K, m1 = 0.4001	391.8	999.12
338.15 K, m1 = 0.7496	392.3	1014.03
338.15 K, m1 = 1.001	392.9	1023.97
338.15 K, m1 = 1.498	392.9	1042.32
338.15 K, m1 = 1.997	389.9	1059.03
338.15 K, m1 = 2.701	394.2	1080.39
343.15 K, m1 = 0.0499	385	–
343.15 K, m1 = 0.1	393.6	–
343.15 K, m1 = 0.4001	395.5	–
343.15 K, m1 = 0.7496	395.9	–
343.15 K, m1 = 1.001	396.5	–
343.15 K, m1 = 1.498	396.5	–
343.15 K, m1 = 1.997	393.5	–
343.15 K, m1 = 2.701	397.7	–
348.15 K, m1 = 0.0499	389	977.37
348.15 K, m1 = 0.1	396.9	979.76
348.15 K, m1 = 0.4001	398.9	993.29
348.15 K, m1 = 0.7496	399.3	1008.12
348.15 K, m1 = 1.001	399.9	1017.97
348.15 K, m1 = 1.498	399.9	1036.22
348.15 K, m1 = 1.997	397	1052.82
348.15 K, m1 = 2.701	400.9	1074.02
353.15 K, m1 = 0.0499	392	–
353.15 K, m1 = 0.1	400	–
353.15 K, m1 = 0.4001	401.9	–
353.15 K, m1 = 0.7496	402.3	–
353.15 K, m1 = 1.001	402.9	–
353.15 K, m1 = 1.498	402.9	–
353.15 K, m1 = 1.997	400.2	–
353.15 K, m1 = 2.701	403.9	–
358.15 K, m1 = 0.0499	394	971.43
358.15 K, m1 = 0.1	402.5	973.65
358.15 K, m1 = 0.4001	404.6	986.64
358.15 K, m1 = 0.7496	404.9	1001.31
358.15 K, m1 = 1.001	405.5	1011.25
358.15 K, m1 = 1.498	405.5	1029.33
358.15 K, m1 = 1.997	403.2	1045.42
358.15 K, m1 = 2.701	406.4	1066.46
363.15 K, m1 = 0.0499	396	–
363.15 K, m1 = 0.1	404	–
363.15 K, m1 = 0.4001	405.9	–
363.15 K, m1 = 0.7496	406.2	–
363.15 K, m1 = 1.001	406.8	–
363.15 K, m1 = 1.498	406.7	–
363.15 K, m1 = 1.997	405.9	–
363.15 K, m1 = 2.701	407.6	–
368.15 K, m1 = 0.0499	–	964.45
368.15 K, m1 = 0.1	–	966.77
368.15 K, m1 = 0.4001	–	980.22
368.15 K, m1 = 0.7496	–	994.89
368.15 K, m1 = 1.001	–	1004.67
368.15 K, m1 = 1.498	–	1022.74
368.15 K, m1 = 1.997	–	1039.27
368.15 K, m1 = 2.701	–	1060.25
